These results are taken from the NIST ThermoML archive (doi:10.1016/j.fluid.2018.11.011).

Numbers after ± are expanded uncertainties.

The nature of this data set: activity coefficient (dimensionless); of the first substance listed, at infinite dilution; xn = mol fraction of the nth substance listed. The following applies: 101.33 kPa, Liquid, Chromatography, x1 = 0.

As to `CCC(C)=O` [butanone] + CCCCCCCCCC[N+](C)(C)CCCCCCCCCC.[O-][Cl+3]([O-])([O-])[O-], the activity coefficient is 0.532 ± 0.058 (323 K), 0.59 ± 0.063 (338 K) and 0.585 ± 0.063 (353 K).

Turning to `CO` [methanol] + CCCCCCCCCC[N+](C)(C)CCCCCCCCCC.[O-][Cl+3]([O-])([O-])[O-], the activity coefficient is 0.447 ± 0.051 (308 K), 0.351 ± 0.043 (323 K), 0.419 ± 0.048 (338 K) and 0.407 ± 0.047 (353 K).

Regarding `C/C=C(\C)CC` [(E)-3-methyl-2-pentene] + CCCCCCCCCC[N+](C)(C)CCCCCCCCCC.F[B-](F)(F)F, the activity coefficient stood at 1.71 ± 0.18 (323 K), 1.3 ± 0.13 (338 K) and 1.43 ± 0.15 (353 K).

Turning to `C1CCOC1` [tetrahydrofuran] + CCCCCCCCCC[N+](C)(C)CCCCCCCCCC.[O-][Cl+3]([O-])([O-])[O-], the activity coefficient worked out at 0.478 ± 0.053 (323 K), 0.46 ± 0.052 (338 K) and 0.536 ± 0.058 (353 K).

For `C=CCCCCCC` [oct-1-ene] + CCCCCCCCCC[N+](C)(C)CCCCCCCCCC.F[B-](F)(F)F, the activity coefficient runs as follows: (308 K) 0.765 ± 0.079; (323 K) 0.757 ± 0.078; (338 K) 0.749 ± 0.078; (353 K) 0.951 ± 0.097.

For `O=C1CCCCC1` [cyclohexanone] + CCCCCCCCCC[N+](C)(C)CCCCCCCCCC.[O-][Cl+3]([O-])([O-])[O-], the activity coefficient by setting is: (323 K) 11.7 ± 1.2; (338 K) 9.68 ± 1; (353 K) 8.46 ± 0.89.

Consider `CCCC` [butane] + CCCCCCCCCC[N+](C)(C)CCCCCCCCCC.[O-][Cl+3]([O-])([O-])[O-], for which the activity coefficient is, setting by setting: (308 K) 1.36 ± 0.14; (323 K) 1.32 ± 0.14; (338 K) 1.28 ± 0.13; (353 K) 1.24 ± 0.13.

Consider `C1CCCCC1` [cyclohexane] + CCCCCCCCCC[N+](C)(C)CCCCCCCCCC.F[B-](F)(F)F, for which the activity coefficient by setting is: (308 K) 1.47 ± 0.15; (323 K) 1.43 ± 0.15; (338 K) 1.4 ± 0.14; (353 K) 1.73 ± 0.18.

Consider `O=C1CCCCC1` [cyclohexanone] + CCCCCCCCCC[N+](C)(C)CCCCCCCCCC.F[B-](F)(F)F, for which the activity coefficient was 9.47 ± 1 (323 K), 7.99 ± 0.84 (338 K) and 9.05 ± 0.95 (353 K).

As to `C=CCCCCCC` [oct-1-ene] + CCCCCCCCCC[N+](C)(C)CCCCCCCCCC.[O-][Cl+3]([O-])([O-])[O-], the activity coefficient is, setting by setting: (308 K) 1.1 ± 0.11; (323 K) 0.999 ± 0.1; (338 K) 1.04 ± 0.11; (353 K) 0.938 ± 0.096.

`CCCCCCC` [heptane] + CCCCCCCCCC[N+](C)(C)CCCCCCCCCC.F[B-](F)(F)F: the activity coefficient reads like this: (308 K) 3.53 ± 0.37; (323 K) 3.04 ± 0.32; (338 K) 2.62 ± 0.28; (353 K) 2.48 ± 0.26.

Consider `C/C=C/C(C)C` [(E)-4-methyl-2-pentene] + CCCCCCCCCC[N+](C)(C)CCCCCCCCCC.F[B-](F)(F)F, for which the activity coefficient reads like this: (323 K) 1.68 ± 0.17; (338 K) 1.45 ± 0.15; (353 K) 1.57 ± 0.16.

Consider `C1CCCC1` [cyclopentane] + CCCCCCCCCC[N+](C)(C)CCCCCCCCCC.F[B-](F)(F)F, for which the activity coefficient stood at 1.21 ± 0.12 (308 K), 1.17 ± 0.12 (323 K), 1.13 ± 0.12 (338 K) and 1.28 ± 0.13 (353 K).

Turning to `CCCCCCC` [heptane] + CCCCCCCCCC[N+](C)(C)CCCCCCCCCC.[O-][Cl+3]([O-])([O-])[O-], the activity coefficient worked out at 3.11 ± 0.33 (308 K), 2.96 ± 0.31 (323 K), 2.85 ± 0.3 (338 K) and 2.67 ± 0.28 (353 K).

On to `C1CCOC1` [tetrahydrofuran] + CCCCCCCCCC[N+](C)(C)CCCCCCCCCC.F[B-](F)(F)F, for which the activity coefficient came out at 0.662 ± 0.07 (323 K), 0.619 ± 0.066 (338 K) and 0.695 ± 0.073 (353 K).

As to `CC#N` [acetonitrile] + CCCCCCCCCC[N+](C)(C)CCCCCCCCCC.F[B-](F)(F)F, the activity coefficient runs as follows: (323 K) 1.21 ± 0.12; (338 K) 1.06 ± 0.11; (353 K) 1.24 ± 0.13.

In the case of `CC(C)O` [propan-2-ol] + CCCCCCCCCC[N+](C)(C)CCCCCCCCCC.[O-][Cl+3]([O-])([O-])[O-], the activity coefficient (323 K) amounted to 1.5 ± 0.16, the activity coefficient (338 K) was 1.54 ± 0.16 and the activity coefficient (353 K) turned out to be 1.11 ± 0.11.

On to `CC(C)=O` [acetone] + CCCCCCCCCC[N+](C)(C)CCCCCCCCCC.F[B-](F)(F)F, for which the activity coefficient (323 K) came out at 0.991 ± 0.1, the activity coefficient (338 K) stood at 0.833 ± 0.086 and the activity coefficient (353 K) was 0.86 ± 0.088.

Take `ClC(Cl)Cl` [trichloromethane] + CCCCCCCCCC[N+](C)(C)CCCCCCCCCC.[O-][Cl+3]([O-])([O-])[O-]: the activity coefficient is 0.224 ± 0.034 (323 K), 0.29 ± 0.038 (338 K) and 0.302 ± 0.039 (353 K).

For the compound `C1CCCCCC1` [cycloheptane] + CCCCCCCCCC[N+](C)(C)CCCCCCCCCC.[O-][Cl+3]([O-])([O-])[O-], the activity coefficient (308 K) was 2.29 ± 0.24, the activity coefficient (323 K) is 2.04 ± 0.21, the activity coefficient (338 K) is 1.91 ± 0.2 and the activity coefficient (353 K) was determined as 1.78 ± 0.19.

Regarding `CCCCC` [pentane] + CCCCCCCCCC[N+](C)(C)CCCCCCCCCC.F[B-](F)(F)F, the activity coefficient is 1.85 ± 0.19 (308 K), 1.51 ± 0.16 (323 K), 1.24 ± 0.13 (338 K) and 1.08 ± 0.11 (353 K).

Take `CCCCCC` [hexane] + CCCCCCCCCC[N+](C)(C)CCCCCCCCCC.F[B-](F)(F)F: the activity coefficient worked out at 2.73 ± 0.29 (308 K), 2.51 ± 0.26 (323 K), 2.3 ± 0.24 (338 K) and 2.2 ± 0.23 (353 K).

Take `C=CCCC` [1-pentene] + CCCCCCCCCC[N+](C)(C)CCCCCCCCCC.[O-][Cl+3]([O-])([O-])[O-]: the activity coefficient by setting is: (308 K) 1.88 ± 0.2; (323 K) 1.56 ± 0.16; (338 K) 1.37 ± 0.14; (353 K) 1.31 ± 0.13.

For `ClCCCl` [1,2-dichloroethane] + CCCCCCCCCC[N+](C)(C)CCCCCCCCCC.[O-][Cl+3]([O-])([O-])[O-], the activity coefficient came out at 0.464 ± 0.052 (323 K), 0.494 ± 0.055 (338 K) and 0.482 ± 0.053 (353 K).

With `CO` [methanol] + CCCCCCCCCC[N+](C)(C)CCCCCCCCCC.F[B-](F)(F)F, the activity coefficient worked out at 0.294 ± 0.039 (308 K), 0.289 ± 0.038 (323 K), 0.285 ± 0.038 (338 K) and 0.327 ± 0.041 (353 K).

As for `CC#N` [acetonitrile] + CCCCCCCCCC[N+](C)(C)CCCCCCCCCC.[O-][Cl+3]([O-])([O-])[O-], the activity coefficient is, setting by setting: (323 K) 0.543 ± 0.059; (338 K) 0.511 ± 0.056; (353 K) 0.46 ± 0.052.

`CCCCC` [pentane] + CCCCCCCCCC[N+](C)(C)CCCCCCCCCC.[O-][Cl+3]([O-])([O-])[O-]: the activity coefficient reads like this: (308 K) 1.77 ± 0.18; (323 K) 1.59 ± 0.17; (338 K) 1.44 ± 0.15; (353 K) 1.28 ± 0.13.

In the case of `CCCCCCCC` [octane] + CCCCCCCCCC[N+](C)(C)CCCCCCCCCC.F[B-](F)(F)F, the activity coefficient is, setting by setting: (308 K) 4.41 ± 0.46; (323 K) 3.71 ± 0.39; (338 K) 3.13 ± 0.33; (353 K) 2.89 ± 0.3.

Consider `CCCC` [butane] + CCCCCCCCCC[N+](C)(C)CCCCCCCCCC.F[B-](F)(F)F, for which the activity coefficient is, setting by setting: (308 K) 1.21 ± 0.12; (323 K) 1.12 ± 0.12; (338 K) 1.04 ± 0.1; (353 K) 0.939 ± 0.096.

Regarding `CC(C)O` [propan-2-ol] + CCCCCCCCCC[N+](C)(C)CCCCCCCCCC.F[B-](F)(F)F, the activity coefficient stood at 3.47 ± 0.37 (323 K), 2.41 ± 0.25 (338 K) and 1.9 ± 0.2 (353 K).

As for `CCC(C)=O` [butanone] + CCCCCCCCCC[N+](C)(C)CCCCCCCCCC.F[B-](F)(F)F, the activity coefficient (323 K) is 1.07 ± 0.11, the activity coefficient (338 K) was 0.903 ± 0.092 and the activity coefficient (353 K) is 0.82 ± 0.084.

On to `C#CCCCC` [1-hexyne] + CCCCCCCCCC[N+](C)(C)CCCCCCCCCC.[O-][Cl+3]([O-])([O-])[O-], for which the activity coefficient reads like this: (308 K) 0.732 ± 0.076; (323 K) 0.83 ± 0.085; (338 K) 0.989 ± 0.1; (353 K) 0.969 ± 0.099.

For the compound `C#CCCCCC` [1-heptyne] + CCCCCCCCCC[N+](C)(C)CCCCCCCCCC.[O-][Cl+3]([O-])([O-])[O-], the activity coefficient runs as follows: (308 K) 1.14 ± 0.12; (323 K) 1.1 ± 0.11; (338 K) 1.17 ± 0.12; (353 K) 1.18 ± 0.12.

On to `CCCCCC` [hexane] + CCCCCCCCCC[N+](C)(C)CCCCCCCCCC.[O-][Cl+3]([O-])([O-])[O-], for which the activity coefficient (308 K) was 2.49 ± 0.26, the activity coefficient (323 K) is 2.48 ± 0.26, the activity coefficient (338 K) came to 2.47 ± 0.26 and the activity coefficient (353 K) was 2.45 ± 0.26.

Turning to `C#CCCCC` [1-hexyne] + CCCCCCCCCC[N+](C)(C)CCCCCCCCCC.F[B-](F)(F)F, the activity coefficient reads like this: (308 K) 0.85 ± 0.087; (323 K) 0.838 ± 0.086; (338 K) 0.826 ± 0.085; (353 K) 0.937 ± 0.096.

For the compound `C=CCCCC` [hex-1-ene] + CCCCCCCCCC[N+](C)(C)CCCCCCCCCC.[O-][Cl+3]([O-])([O-])[O-], the activity coefficient runs as follows: (308 K) 2.28 ± 0.24; (323 K) 1.56 ± 0.16; (338 K) 1.8 ± 0.19; (353 K) 1.73 ± 0.18.

With `C/C=C(\C)CC` [(E)-3-methyl-2-pentene] + CCCCCCCCCC[N+](C)(C)CCCCCCCCCC.[O-][Cl+3]([O-])([O-])[O-], the activity coefficient is 1.48 ± 0.15 (323 K), 1.49 ± 0.15 (338 K) and 1.32 ± 0.14 (353 K).
